≈ marks a conversion by molar mass, not a printed value.
Key:
Type in all cases: functional
Escherichia coli = experiment: Compound was tested for antibacterial activity against Escherichia coli organism
Pseudomonas = experiment: Compound was tested for antibacterial activity against Pseudomonas organism
Staphylococcus = experiment: Compound was tested for antibacterial activity against Staphylococcus organism

SMILES | MIC (Escherichia coli) | MIC (Pseudomonas) | MIC (Staphylococcus)
CCC(C)CCCCC(=O)NCC[C@@H]1NC(=O)[C@H](CCN)NC(=O)[C@H](CC(C)C)NC(=O)[C@@H](Cc2ccccc2)NC(=O)[C@H](CCN)NC(=O)[C@@H](NC(=O)[C@H](CCN)NC(=O)[C@@H](NC(=O)[C@H](CCN)NC(=O)CCCCC(C)C)[C@@H](C)O)CCNC(=O)[C@H]([C@@H](C)O)NC1=O (stereo partly drawn) | 3.1 µg/mL (≈ 2.33 µM) | 2.18 µg/mL (≈ 1.64 µM) | 0.7 µg/mL (≈ 0.526 µM)
CC(=O)NCC[C@H](NC(=O)CCCCC(C)C)C(=O)N[C@H](C(=O)N[C@@H](CCN)C(=O)N[C@H]1CCNC(=O)[C@H]([C@@H](C)O)NC(=O)[C@H](CCN)NC(=O)[C@H](CCN)NC(=O)[C@H](CC(C)C)NC(=O)[C@@H](Cc2ccccc2)NC(=O)[C@H](CCN)NC1=O)[C@@H](C)O | 1.3 µg/mL (≈ 1.06 µM) | 2.8 µg/mL (≈ 2.27 µM) | 2.8 µg/mL (≈ 2.27 µM)
CC(C)CCCCC(=O)N[C@@H](CCN)C(=O)N[C@H](C(=O)N[C@@H](CCN)C(=O)N[C@H]1CCNC(=O)[C@H]([C@@H](C)O)NC(=O)[C@H](CCNC(=O)CO)NC(=O)[C@H](CCN)NC(=O)[C@H](CC(C)C)NC(=O)[C@@H](Cc2ccccc2)NC(=O)[C@H](CCN)NC1=O)[C@@H](C)O | 1.54 µg/mL (≈ 1.23 µM) | 1.53 µg/mL (≈ 1.23 µM) | 22.6 µg/mL (≈ 18.1 µM)
CC(C)CCCCC(=O)N[C@@H](CCN)C(=O)N[C@H](C(=O)N[C@@H](CCN)C(=O)N[C@H]1CCNC(=O)[C@H]([C@@H](C)O)NC(=O)[C@H](CCN(CC(=O)O)CC(=O)O)NC(=O)[C@H](CCN)NC(=O)[C@H](CC(C)C)NC(=O)[C@@H](Cc2ccccc2)NC(=O)[C@H](CCN)NC1=O)[C@@H](C)O | 1.19 µg/mL (≈ 0.911 µM) | 0.318 µg/mL (≈ 0.244 µM) | 22.6 µg/mL (≈ 17.3 µM)
CC(C)CCCCC(=O)N[C@@H](CCN)C(=O)N[C@H](C(=O)N[C@@H](CCN)C(=O)N[C@H]1CCNC(=O)[C@H]([C@@H](C)O)NC(=O)[C@H](CCNC(=O)C(Cl)Cl)NC(=O)[C@H](CCN)NC(=O)[C@H](CC(C)C)NC(=O)[C@@H](Cc2ccccc2)NC(=O)[C@H](CCN)NC1=O)[C@@H](C)O | 1.54 µg/mL (≈ 1.18 µM) | 0.995 µg/mL (≈ 0.765 µM) | 0.82 µg/mL (≈ 0.631 µM)
CC(C)CCCCC(=O)N[C@@H](CCN)C(=O)N[C@H](C(=O)N[C@@H](CCN)C(=O)N[C@H]1CCNC(=O)[C@H]([C@@H](C)O)NC(=O)[C@H](CCNC(=O)[C@@H](N)CCC/N=C(/N)N[N+](=O)[O-])NC(=O)[C@H](CCN)NC(=O)[C@H](CC(C)C)NC(=O)[C@@H](Cc2ccccc2)NC(=O)[C@H](CCN)NC1=O)[C@@H](C)O | 1.3 µg/mL (≈ 0.935 µM) | 2.6 µg/mL (≈ 1.87 µM) | 1.2 µg/mL (≈ 0.863 µM)
CC(C)CCCCC(=O)N[C@@H](CCN)C(=O)N[C@H](C(=O)N[C@@H](CCN)C(=O)N[C@H]1CCNC(=O)[C@H]([C@@H](C)O)NC(=O)[C@H](CCNC(=O)[C@@H](N)CS)NC(=O)[C@H](CCN)NC(=O)[C@H](CC(C)C)NC(=O)[C@@H](Cc2ccccc2)NC(=O)[C@H](CCN)NC1=O)[C@@H](C)O | 1.68 µg/mL (≈ 1.3 µM) | 2.82 µg/mL (≈ 2.18 µM) | 11.3 µg/mL (≈ 8.75 µM)

Molecules with a lower MIC (Escherichia coli), results first:

MIC (Escherichia coli) | MIC (Pseudomonas) | MIC (Staphylococcus) | SMILES
0.995 µg/mL (≈ 0.799 µM) | 0.763 µg/mL (≈ 0.613 µM) | 9.5 µg/mL (≈ 7.63 µM) | CCN(CC)CC[C@@H]1NC(=O)[C@H](CCN)NC(=O)[C@H](CC(C)C)NC(=O)[C@@H](Cc2ccccc2)NC(=O)[C@H](CCN)NC(=O)[C@@H](NC(=O)[C@H](CCN)NC(=O)[C@@H](NC(=O)[C@H](CCN)NC(=O)CCCCC(C)C)[C@@H](C)O)CCNC(=O)[C@H]([C@@H](C)O)NC1=O
0.77 µg/mL (≈ 0.583 µM) | 0.416 µg/mL (≈ 0.315 µM) | 5.65 µg/mL (≈ 4.28 µM) | CSCC[C@H](N)C(=O)NCC[C@@H]1NC(=O)[C@H](CCN)NC(=O)[C@H](CC(C)C)NC(=O)[C@@H](Cc2ccccc2)NC(=O)[C@H](CCN)NC(=O)[C@@H](NC(=O)[C@H](CCN)NC(=O)[C@@H](NC(=O)[C@H](CCN)NC(=O)CCCCC(C)C)[C@@H](C)O)CCNC(=O)[C@H]([C@@H](C)O)NC1=O
0.537 µg/mL (≈ 0.441 µM) | 0.456 µg/mL (≈ 0.375 µM) | 16 µg/mL (≈ 13.1 µM) | CC(C)CCCCC(=O)N[C@@H](CCN)C(=O)N[C@H](C(=O)N[C@@H](CCN)C(=O)N[C@H]1CCNC(=O)[C@H]([C@@H](C)O)NC(=O)[C@H](CCN(C)C)NC(=O)[C@H](CCN)NC(=O)[C@H](CC(C)C)NC(=O)[C@@H](Cc2ccccc2)NC(=O)[C@H](CCN)NC1=O)[C@@H](C)O
0.492 µg/mL (≈ 0.404 µM) | 0.413 µg/mL (≈ 0.339 µM) | 9.5 µg/mL (≈ 7.8 µM) | CCNCC[C@@H]1NC(=O)[C@H](CCN)NC(=O)[C@H](CC(C)C)NC(=O)[C@@H](Cc2ccccc2)NC(=O)[C@H](CCN)NC(=O)[C@@H](NC(=O)[C@H](CCN)NC(=O)[C@@H](NC(=O)[C@H](CCN)NC(=O)CCCCC(C)C)[C@@H](C)O)CCNC(=O)[C@H]([C@@H](C)O)NC1=O
0.454 µg/mL (≈ 0.359 µM) | 0.085 µg/mL (≈ 0.0671 µM) | 9.5 µg/mL (≈ 7.5 µM) | CC(C)CCCCC(=O)N[C@@H](CCN)C(=O)N[C@H](C(=O)N[C@@H](CCN)C(=O)N[C@H]1CCNC(=O)[C@H]([C@@H](C)O)NC(=O)[C@H](CCNC(=O)CCl)NC(=O)[C@H](CCN)NC(=O)[C@H](CC(C)C)NC(=O)[C@@H](Cc2ccccc2)NC(=O)[C@H](CCN)NC1=O)[C@@H](C)O
0.453 µg/mL (≈ 0.337 µM) | 0.207 µg/mL (≈ 0.154 µM) | 4.48 µg/mL (≈ 3.33 µM) | CC(C)CCCCC(=O)N[C@@H](CCNC(=O)[C@@H](N)CCCN=C(N)N)C(=O)N[C@H](C(=O)N[C@@H](CCN)C(=O)N[C@H]1CCNC(=O)[C@H]([C@@H](C)O)NC(=O)[C@H](CCN)NC(=O)[C@H](CCN)NC(=O)[C@H](CC(C)C)NC(=O)[C@@H](Cc2ccccc2)NC(=O)[C@H](CCN)NC1=O)[C@@H](C)O
0.208 µg/mL (≈ 0.167 µM) | 0.206 µg/mL (≈ 0.165 µM) | 2.4 µg/mL (≈ 1.93 µM) | CCN(CC)CC[C@H](NC(=O)CCCCC(C)C)C(=O)N[C@H](C(=O)N[C@@H](CCN)C(=O)N[C@H]1CCNC(=O)[C@H]([C@@H](C)O)NC(=O)[C@H](CCN)NC(=O)[C@H](CCN)NC(=O)[C@H](CC(C)C)NC(=O)[C@@H](Cc2ccccc2)NC(=O)[C@H](CCN)NC1=O)[C@@H](C)O
0.173 µg/mL (≈ 0.131 µM) | 0.032 µg/mL (≈ 0.0243 µM) | 2.8 µg/mL (≈ 2.13 µM) | CC(C)CCCCC(=O)N[C@@H](CCN)C(=O)N[C@H](C(=O)N[C@@H](CCN)C(=O)N[C@H]1CCNC(=O)[C@H]([C@@H](C)O)NC(=O)[C@H](CCNC(=O)[C@@H](N)CCCCN)NC(=O)[C@H](CCN)NC(=O)[C@H](CC(C)C)NC(=O)[C@@H](Cc2ccccc2)NC(=O)[C@H](CCN)NC1=O)[C@@H](C)O
0.112 µg/mL (≈ 0.092 µM) | 0.146 µg/mL (≈ 0.12 µM) | 2.3 µg/mL (≈ 1.89 µM) | CCNCC[C@H](NC(=O)CCCCC(C)C)C(=O)N[C@H](C(=O)N[C@@H](CCN)C(=O)N[C@H]1CCNC(=O)[C@H]([C@@H](C)O)NC(=O)[C@H](CCN)NC(=O)[C@H](CCN)NC(=O)[C@H](CC(C)C)NC(=O)[C@@H](Cc2ccccc2)NC(=O)[C@H](CCN)NC1=O)[C@@H](C)O
